In PMC3651166, “Differential Cytotoxic Activity of a Novel Palladium-Based Compound on Prostate Cell Lines, Primary Prostate Epithelial Cells and Prostate Stem Cells” (PLoS ONE, 2013):
Values joined by “and” are separate entries in the source; they are usually repeats but may differ in a detail not shown here. Equal entries are not always repeated. “Also recorded” adds a separate entry of the source. Where two headings read alike, the source gives them in different places.

Tests used:
PCa Primary cells (Gl7) = test: MTS assay, primary cultures from prostate carcinoma Gleason 6/7; assay type: cell-based, human
From the text: (§1) Primary prostate epithelial cells were isolated from human tissue samples. The samples were collected with ethical permission from York District Hospital (York, UK) and Castle Hill Hospital (Cottingham, UK). Benign prostatic hyperplasia (BPH) and prostate cancer samples were obtained from TURP (transurethral resection of the prostate), radical prostatectomy (laparoscopic and open) and cystectomy operations. All patients gave written consent for their tissue to be used for research and all patient samples were anonymised. Permission was approved by the Local Research Ethical Committees, associated with York District Hospital and Castle Hill Hospital. Permission was administered by the Yorkshire and Humber Research Ethics Committee.
Prostate epithelial cells were cultured as previously described in stem cell media (SCM) consisting of keratinocyte serum-free media (KSFM) with bovine pituitary extract (BPE) and epidermal growth factor (EGF), glutamine, stem cell factor (SCF), granulocyte macrophage colony stimulating factor (GM-CSF), leukaemia inhibitory factor (LIF) and cholera toxin. Cells were grown with STO feeder cells (irradiated at 60 Gy) on collagen I-coated plates.
(§2) This assay was performed for the initial screening of the effect of the Pd complex on the cell lines and the whole cell population of primary cultures. The CellTiter 96® Aqueous One Solution Cell Proliferation Assay kit (G3580, Promega, Madison, WI, USA) was used and the manufacturer’s instructions were followed. Briefly, after treating cells that were seeded at a density of 5,000 cells per well in a 96-well plate in triplicate for a desired period (24 h, 48 h, 72 h), 20 µL of reagent was added to each well. Following 2.5 h incubation at 37°C, the absorbance was read at 485 nm using a plate reader (PolarStar Optima, BMG Labtech, UK). Percent viability was calculated using the formula (% Viability = [(Sample Absorbance/Control Absorbance)]×100.
(§3) MTS and ATP assays were performed in triplicate and data presented as the mean +/− standard deviation. IC50 values (Table 3 and Table 4) were calculated from graphs of transformed data following application of the nonlinear regression (curve fit) that represents the log(inhibitor) ‘v’ normalized response (GraphPad Prism software) (Supplementary Figures S1 and S2). For significance calculations, the Wilcoxon rank sum test was used (Sigmaplot). Flow cytometry analysis was carried out in triplicate and results are presented as an average with error bars indicating the standard error.

[1] = system: stem cells (SCs), transit-amplifying cells (TAs) and committed basal cells (CBs); test: ATP viability assay on fractionated primary cells; assay type: cell-based
Protocol: Epithelial cells from human tumour or BPH materials were cultured for several weeks and the cells treated at very low passages. The cultured basal cell population were trypsinized, resuspended in SCM and then plated on BSA-blocked collagen I-coated plates. […] The cells that attached to substratum were trypsinised, resuspended in MACs buffer and incubated with CD133-microbeads (Cat no. 130-050-801, Miltenyi Biotec Inc., Auburn, CA, USA). MACs MS columns (Cat no. 130-042-201, Miltenyi Biotec Inc., Auburn, CA, USA) were used to select the CD133^+ and CD133^− cells. Finally, the three cell populations were obtained: stem cells (SCs) - α2β1integrin^hi/CD133^+, transit-amplifying cells (TAs) - α2β1integrin^hi/CD133^− and committed basal cells (CBs) - α2β1integrin^lo.
This assay was employed for the bioluminescent determination of the adenosine 5′-triphosphate (ATP) released from fractionated living cells (cancer stem cells, transit amplifying cells and committed basal cells). As ATP is rapidly degraded in dead cells, high intracellular levels provide a selective assay for living cells. The ATP-bioluminescent somatic cell assay kit (FLASC, Sigma-Aldrich, Saint Louis, MO, USA) was used with protocol modifications. Briefly, 50–500 cells per well were seeded in a collagen-coated 96 well plate in triplicate. After treating cells for 72 h, 150 µL of medium was removed from each well. 50 µL of cell extraction reagent was added into each original well. Following 20 min incubation at RT, 50 µL of cell extract was transferred to a white 96-well plate. Finally, 50 µL of ATP assay mix solution was added into the wells and luminescence was read using a plate reader (PolarStar Optima, BMG Labtech, UK). Percent viability was calculated using the formula (% Viability = [(Sample RLU/Control RLU)]x100 where RLU refers to relative light units.

PNT1A, PNT2-C2, BPH-1 = test: MTS assay, average over normal/benign cell lines; assay type: cell-based, human; settings: average of PNT1A
Protocol: In this study, six different prostate cell lines (PNT1A, PNT2-C2, BPH-1, PC-3, LNCaP, P4E6) were used (Table 1). These cell lines encompass the spectrum of cellular differentiation status (basal, intermediate and luminal phenotypes), as well as the spectrum of normal, early cancer and late cancer. BPH-1 is derived from benign prostate hyperplasia (BPH), while PNT2-C2 and PNT1A are derived from normal prostate. PC-3, LNCaP and P4E6 are cancer cell lines. LNCaP, PNT2-C2, PNT1A were grown in RPMI medium with 10% FCS (foetal calf serum); PC-3 was grown in Ham’s F-12 medium with 7% FCS; BPH-1 was grown in RPMI medium with 5% FCS; P4E6 was grown in KSFM (Keratinocyte serum free medium) with 2% FCS. No antibiotics were used in any media. The cells were incubated at 37°C in a humidified atmosphere containing 5% CO2.
as §2
as §3, with “Flow cytometry analysis was carried out in triplicate and results are presented as an average with error bars indicating the standard error.” left out

[2] = system: primary cultures from BPH and Gleason 6/7 cancers; test: MTS assay, primary cultures BPH and Gleason 6/7 together; assay type: cell-based, human
From the text: as §1, with “Committee. […]” for “Committee.”
This assay was performed for the initial screening of the effect of the Pd complex on the cell lines and the whole cell population of primary cultures. […] Following 2.5 h incubation at 37°C, the absorbance was read at 485 nm using a plate reader (PolarStar Optima, BMG Labtech, UK). Percent viability was calculated using the formula (% Viability = [(Sample Absorbance/Control Absorbance)]×100.

[3] = system: PNT2-C2, BPH-1, P4E6, PC-3 and LNCaP; test: Flow cytometry cell cycle analysis, cell lines; assay type: cell-based, human
Protocol: Following drug treatment, floating cells in the media were pooled with adherent cells, which were collected by trypsinisation. Following centrifugation cells were resuspended in 0.5 ml PBS. Cells were fixed in 2 ml ice cold 70% ethanol, which was added in a dropwise fashion while vortexing. Cells were incubated on ice for 30 min then washed in 5 ml PBS and resuspended in 0.4 ml PBS. Following storage at 4°C overnight, 50 µl of RNAse (1 mg/ml) and 50 µl of propidium iodide (1 mg/ml) were added to the cells. Following incubation at 37°C for 30 min the cells were analysed for 2N and 4N DNA content on a flow cytometer (Cyan ADP Analyser, Beckman Coulter).

Question: Which IC50 (PCa Primary cells (Gl7); PCa primary cells (Gl7), sample 06211rb, 72 h, read-out: IC50) does the source give for [PdCl(terpy)](sac)⋅2 H2O [Pd complex] here?
Answer: The IC50 was 11.1 µM.

Question: What about the IC50 (PCa Primary cells (Gl7); PCa primary cells (Gl7), sample 06411lb, 72 h, read-out: IC50) of the same substance?
Answer: The IC50 was 5.2 µM.

Question: What about the IC50 (PCa Primary cells (Gl7); PCa primary cells (Gl7), sample 06411ra, 72 h, read-out: IC50) of the same substance?
Answer: The IC50 was 3.78 µM.

Question: And the IC50 (PCa Primary cells (Gl7); PCa primary cells (Gl7), sample 06611lb, 72 h, read-out: IC50)?
Answer: The IC50 was 13.1 µM.

Question: What about the IC50 (PCa Primary cells (Gl7); PCa primary cells (Gl7), sample 06711rb, 72 h, read-out: IC50) of the same substance?
Answer: The IC50 was 8.24 µM.

Question: What about the IC50 (PCa Primary cells (Gl7); PCa primary cells (Gl7), sample 07011la, 72 h, read-out: IC50) of the same substance?
Answer: The IC50 was 5.36 µM.

Question: And the IC50 (PCa Primary cells (Gl7); PCa primary cells (Gl7), sample 07011lb, 72 h, read-out: IC50)?
Answer: Its IC50 is 6.03 µM.

Question: And the IC50 (PCa Primary cells (Gl7); PCa primary cells (Gl7), sample 07311ra, 72 h, read-out: IC50)?
Answer: Its IC50 is 5.37 µM.

Question: And the IC50 (PCa Primary cells (Gl7); PCa primary cells (Gl7), sample 22412, 72 h, read-out: IC50)?
Answer: The IC50 was 6.3 µM.

Question: What about the IC50 (PCa Primary cells (Gl7); average of PCa primary cells (Gl7; Gleason 6/7), 72 h, read-out: IC50 AVERAGE) of the same substance?
Answer: The IC50 was 7.16 µM.

Question: And the “reduction of cell viability compared to etoposide” value (PCa Primary cells (Gl7); malignant samples, both at 25 µM, 72 h, median values)?
Answer: Its value is 10.66 fold.

Question: What about the “toxicity compared to cisplatin” value ([1]; 6 µM range, ATP assay) of the same substance?
Answer: The value was “comparable toxicity to cisplatin”.

Question: And the “anti-growth effect compared to 25 µM Pd complex and 25 µM etoposide” value ([1]; 6.25 µM, 72 h, ATP assay, SC, TA, CB)?
Answer: Its value is “less than 25 µM Pd complex but still more cytotoxic than 25 µM etoposide”.

Question: What about the “cytotoxicity compared to 25 µM etoposide” value ([1]; 25 µM, 72 h, ATP assay, stem cells (also TA, CB)) of the same substance?
Answer: Its value is “significantly more cytotoxic; also recorded: much more potent cytotoxic activity than etoposide”.

Question: And the cell killing ([1]; 50 µM, data not shown)?
Answer: Its cell killing is “killed all cells”.

Question: And the IC50 (PNT1A, PNT2-C2, BPH-1; PNT2-C2, BPH-1, 24 h)?
Answer: The IC50 was 15.8 µM.

Question: What about the IC50 (PNT1A, PNT2-C2, BPH-1; PNT2-C2, BPH-1, 48 h) of the same substance?
Answer: Its IC50 is 6.77 µM.

Question: What about the IC50 (PNT1A, PNT2-C2, BPH-1; PNT2-C2, BPH-1, 72 h) of the same substance?
Answer: Its IC50 is 0.38 µM and 0.383 µM.

Question: What about the “concentrations having a significant anti-growth effect on all samples” value ([2]; BPH and Gleason 6/7 samples, 72 h) of the same substance?
Answer: Its value is “higher than 6.25”.

Question: What about the “lowest concentration inducing a significant anti-growth effect” value ([2]; primary cultures, previous experiments (MTS)) of the same substance?
Answer: Its value is 6.25 µM.

Question: What about the “sub-G1 DNA content (cell death)” value ([3]; PC3 cells) of the same substance?
Answer: Its value is “almost no change”.

Question: And the “sub-G1 DNA content (cell death)” value ([3]; all cell lines except PC3)?
Answer: Its value is “increase in cells with sub-G1 DNA content”.

Question: And the “S and G2 peaks” value ([3]; normal cells (BPH-1, PNT2-C2))?
Answer: Its value is “reduction in the S and G2 peaks”.
